The source of these data is paper PMC12495412, “Coumarin/nitrogen-bearing heterocyclic hybrid-loaded electrospun PMMA/PVP nanofibrous scaffolds for accelerating topical wound healing rates: synthesis and in vitro bio-evaluation” (RSC Advances, 2025).

Values after ≈ are worked out from the molar mass of the structure shown.

As usually defined, the IC50 is the midpoint of a concentration-inhibition curve. High values mean lower potency, low ones higher potency.

For one series, the system named is MDA cells. Briefly: MTT anticancer assay. The series is classed as cell-based, human. Particulars: 48 h; for IC50 MDA: breast carcinoma cells. The source says: (§1) MTT assay: the normal cell line (Wi-38), colon cancer (Caco-2), lung cancer (A549), and breast cancer (MDA) cell lines were sourced from ATCC, USA. All different cell lines were cultivated and preserved in DMEM medium (SERANA, Germany), accompanied by 10% FBS (Gibco, USA) and 1% Pen/Strep solution (Lonza, USA). The newly prepared derivatives at various doses were considered for their anticancer activity and their safety on normal cells, applying MTT (3-[4, 5-dimethylthiazol]-2, 5-diphenyltetrazolium bromide) methods.[22] At first, all normal and cancer cell lines (1.0 ×10^4) were inoculated in 4 antiseptic 96-well tissue culture microplates and incubated for 24 h in a CO2 incubator. After cell attachments, the prepared derivatives were added to both normal Wi-38 cells at diverse concentrations of (6.25–200 μg mL^−1, 2-fold) and cancer cells at different concentrations of (3.125–100 μg mL^−1, 2-fold) in triplicate and incubated for another 48 h at 37 °C in a CO2 incubator with an adjusted concentration of 5%. After that, the treated cells were cleaned three times with PBS to remove debris and dead cells. Next, 200 μL of 0.5 mg mL^−1 MTT dye solution in PBS was mixed in each well, and the cells were further kept for 3 h at 37 °C in a 5% CO2 incubator. After that, MTT was removed and 200 μL of DMSO was added to each well. The optical density (OD) was recorded at 570 nm via a microplate reader (B.M.G. LabTech, Germany). Basic cells (untreated) were utilized as negative control cells, and 5-fluorouracil (5-FU) was included as a standard chemotherapy drug. The qualified cell viability (%) was evaluated as in equation (eqn (1)):1 Relative cell viability (%) = […] A1 is the OD of the examined derivative, A0 is the OD of the standard, and AU is the OD of the untreated cells.
(§2) Anticancer activity assay: the anticancer effect of each derivative was assessed by evaluating the half-maximal inhibitory concentration (IC50) value via the GraphPad Prism 7.0 software. However, SI (selective index) values of each derivative were estimated by splitting the IC50 value of healthy cells by the IC50 value of malignant cells, as previously reported.[23] The effects of the created derivatives on the morphology of MDA cells were evaluated at IC50 doses and captured by phase-contrast microscopy (Olympus, Germany) in comparison to untreated control cells.

The test system of series [1] is A549 cells. Briefly: MTT anticancer assay. In kind it is cell-based, human. Conditions: 48 h; for IC50 A549: lung carcinoma cells.
Excerpt: as §1, §2
On the technique in general: Tetrazolium assays rely on reduction of a dye to a coloured formazan, in cell work by metabolically active cells.

The next series relates to Wi-38 cells. Briefly: MTT cytotoxicity assay, normal cells. The series is classed as cell-based. Conditions: 48 h; for IC50 Wi-38: normal human lung fibroblast cells.
Excerpt: as §1, §2

In a further series the test system is Caco-2 cells. Briefly: MTT anticancer assay. In kind it is cell-based. Particulars: for SI Caco-2: IC50 Wi-38 / IC50 Caco-2.
Excerpt: as §1, §2

The test system of another series is S. aureus. As to the kind of experiment: Agar-well diffusion of synthesized compounds. Particulars: 100 μL of 10 mg mL^−1 per well, 24 h, 37 °C. In kind it is cell-based, Staphylococcus aureus ATCC 25923. The source says:
The antimicrobial activity of the prepared compounds was estimated through an agar-well diffusion method as adapted from the modified Kirby–Bauer protocol.[24] In this test, microbial pathogens were applied, including Staphylococcus aureus ATCC 25923 (S. aureus), Streptococcus mutans ATCC 25175 (S. mutans), Bacillus cereus ATCC 19637 (B. cereus), Bacillus aureus ATCC 25923 (B. aureus), Bacillus epidermidis ATCC 14990 (B. epidermidis), and Bacillus subtilis ATCC 11774 (B. subtilis) as Gram-positive bacteria, and Pseudomonas aeruginosa ATCC 27853 (P. aeruginosa), Klebsiella pneumonia ATCC 13883 (K. pneumonia), and Salmonella typhimurium ATCC 14028 (S. typhimurium), Salmonella pneumoniae ATCC 10031(S. pneumoniae), Escherichia coli ATCC 10536 (E. coli), and Salmonella paratyphi ATCC 9150 (S. paratyphi) as Gram-negative bacteria. Additionally, Candida albicans (ATCC 10231), Candida krusei ATCC 6258 (C. krusei), Candida glabrata ATCC 66032 (C. glabrata), andCandida parapsilosis ATCC 22019 (C. parapsilosis) were applied as models of unicellular fungi. The pre-inoculation cultures of the pathogens were prepared on Muller–Hinton broth and cultivated for 24 h at 37 °C. The agar-well test was prepared on Muller–Hinton agar with 100 μL of each pathogen pre-culture (0.5 McFarland conc.) and uniformly distributed on the plate surface. […]
(In general: Agar diffusion results depend on both activity and mobility in agar.)

The test system of series [2] is A549 cells. Briefly: Wound healing scratch (anti-migration) assay. The series is classed as cell-based, human. Particulars: IC50 doses, 48 h. The protocol:
To assess the anti-migration inhibition capability of newly synthesized derivatives, a wound healing technique was employed. A549 cells were planted in 12-well plates and kept alive at 37 °C until they achieved 80–90% fluency. The cell monolayers were smashed with a sterile tip and exposed to the prepared derivatives at IC50 doses. At 0 and 48 h of treatment, the wound closure area was captured and calculated by imaging analysis with the Cell-Sens software (Olympus, Japan).

Another series concerns S. mutans. As to the kind of experiment: Agar-well diffusion of synthesized compounds. The series is classed as cell-based, Streptococcus mutans ATCC 25175. Particulars: 100 μL of 10 mg mL^−1 per well, 24 h, 37 °C. The source says: The antimicrobial activity of the prepared compounds was estimated through an agar-well diffusion method as adapted from the modified Kirby–Bauer protocol.[24] In this test, microbial pathogens were applied, including Staphylococcus aureus ATCC 25923 (S. aureus), Streptococcus mutans ATCC 25175 (S. mutans), Bacillus cereus ATCC 19637 (B. cereus), Bacillus aureus ATCC 25923 (B. aureus), Bacillus epidermidis ATCC 14990 (B. epidermidis), and Bacillus subtilis ATCC 11774 (B. subtilis) as Gram-positive bacteria, and Pseudomonas aeruginosa ATCC 27853 (P. aeruginosa), Klebsiella pneumonia ATCC 13883 (K. pneumonia), and Salmonella typhimurium ATCC 14028 (S. typhimurium), Salmonella pneumoniae ATCC 10031(S. pneumoniae), Escherichia coli ATCC 10536 (E. coli), and Salmonella paratyphi ATCC 9150 (S. paratyphi) as Gram-negative bacteria. Additionally, Candida albicans (ATCC 10231), Candida krusei ATCC 6258 (C. krusei), Candida glabrata ATCC 66032 (C. glabrata), andCandida parapsilosis ATCC 22019 (C. parapsilosis) were applied as models of unicellular fungi. The pre-inoculation cultures of the pathogens were prepared on Muller–Hinton broth and cultivated for 24 h at 37 °C. The agar-well test was prepared on Muller–Hinton agar with 100 μL of each pathogen pre-culture (0.5 McFarland conc.) and uniformly distributed on the plate surface. Under aseptic conditions, six wells were created on the agar surface using a sterile corkborer (9 mm). To each well, 100 μL of the prepared compound (10 mg mL^−1) was separately inserted into each plate. All plates were incubated for 24 h at 37 °C; the established inhibition zones (Halo-zones) surrounding the wells indicated positive antimicrobial activity and were stated as the radius of the inhibition zone (mm).

[3] abbreviates: colon carcinoma cells, MTT, 48 h.

For `O=c1[nH]cc(F)c(=O)[nH]1` [Compound 5-FU, 5-fluorouracil, reference compound], the IC50 in the series with MDA cells (Homo sapiens, Breast carcinoma cell) is 5.89 ± 0.19 µg/mL (≈ 45.3 µM); in the series with A549 cells [1] (Homo sapiens, A549, lung carcinoma cells), 5.74 ± 0.24 µg/mL (≈ 44.1 µM); with Wi-38 cells (WI-38, normal human lung fibroblast cells) it was 5.23 ± 0.18 µg/mL (≈ 40.2 µM); in the series with Caco-2 cells (Homo sapiens, Caco-2, colon carcinoma cells, MTT, 48 h) it was 6.13 ± 0.28 µg/mL (≈ 47.1 µM). The “SI Caco-2” value with Caco-2 cells is 0.85 ± 0.03.
Take `Nc1ccc(Nc2ccnc3cc(Cl)ccc23)cc1` [Compound A1]: the “IC50 MDA” value in the series with MDA cells worked out at 14.91 ± 0.96 µg/mL (≈ 55.3 µM). Moreover, the “IC50 A549” value with A549 cells [1] was determined as 32.05 ± 2.18 µg/mL (≈ 119 µM). For the same compound, the “IC50 Wi-38” value in the series on Wi-38 cells was found to be 175.3 ± 14.08 µg/mL (≈ 650 µM). Moreover, the “SI Caco-2” value in the series on Caco-2 cells stood at 4.59 ± 0.37. The “IC50 Caco-2” value with Caco-2 cells (setting [3]) came out at 38.23 ± 1.64 µg/mL (≈ 142 µM).
Consider `Nc1ccc(Nc2c3ccccc3nc3ccccc23)cc1` [Compound B1], for which, in the series on MDA cells, the “IC50 MDA” value was found to be 8.92 ± 0.67 µg/mL (≈ 31.3 µM). Further, the “IC50 A549” value in the series with A549 cells [1] amounted to 16.93 ± 1.88 µg/mL (≈ 59.3 µM). In addition, the Inhibition zone result with S. aureus and in the series with S. mutans was “about 13 mm” in each case. In the series on Wi-38 cells, the “IC50 Wi-38” value was 195.0 ± 14.41 µg/mL (≈ 683 µM). In the series on A549 cells [2], this compound returned a Migration inhibition of 74.63%. The “SI Caco-2” value with Caco-2 cells is 8.07 ± 0.59. For the same compound, the “IC50 Caco-2” value in the series on Caco-2 cells (setting [3]) amounted to 24.15 ± 1.76 µg/mL (≈ 84.6 µM).
